Experiment: Precipitation of caffeine at low temperature (4° C.)
Format: physicochemical
Details: 3 days in a refrigerator (4° C.)

- Amount of niacinamide necessary for inhibiting precipitation (caffeine content 1-3%): 0.5-1 time based on caffeine
- Amount of niacinamide necessary for inhibiting precipitation (caffeine content 3-5%): 1-1.5 times based on caffeine
- Amount of niacinamide necessary for inhibiting precipitation (caffeine content 5-10%): 1-2 times based on caffeine
SMILES: NC(=O)c1cccnc1 [niacinamide, Niacinamide]
